Laboratory results: ChEMBL document CHEMBL4152326 (2018)
The source made the active and inactive calls. The calls are words filed in the database; no cut-off is given here.

Test system: Pseudomonas aeruginosa
Assay: Antimicrobial activity against Pseudomonas aeruginosa 27060deltaR1 harboring deletion of R1 plasmid in presence of human apo-transferrin by broth microdilution method
Type: functional

SMILES	MIC [µg/mL]
CC(C)(O/N=C(\C(=O)N[C@@H]1C(=O)N2C(C(=O)[O-])=C(C[N+]3(CCNC(=O)c4ccc(O)c(O)c4Cl)CCCC3)CS[C@H]12)c1csc(N)n1)C(=O)O [CEFIDEROCOL]	1
CC(C)(O/N=C(\C(=O)N[C@@H]1C(=O)N2C(C(=O)[O-])=C(C[N+]3(CCNC(=O)c4cc(=O)c(O)c[nH]4)CCCC3)CS[C@H]12)c1csc(N)n1)C(=O)O	1
CC(C)(O/N=C(\C(=O)N[C@@H]1C(=O)N2C(C(=O)[O-])=C(C[N+]3(CCNC(=O)c4ccc(O)c(O)c4O)CCCC3)CS[C@H]12)c1csc(N)n1)C(=O)O	4

Test system: Pseudomonas aeruginosa
Assay: Antimicrobial activity against IMP-1 producing Pseudomonas aeruginosa SR27001 in presence of human apo-transferrin by broth microdilution method
Type: functional

SMILES	MIC [µg/mL]
CC(C)(O/N=C(\C(=O)N[C@@H]1C(=O)N2C(C(=O)[O-])=C(C[N+]3(CCNC(=O)c4ccc(O)c(O)c4Cl)CCCC3)CS[C@H]12)c1csc(N)n1)C(=O)O [CEFIDEROCOL]	1
CC(C)(O/N=C(\C(=O)N[C@@H]1C(=O)N2C(C(=O)[O-])=C(C[N+]3(CCNC(=O)c4cc(=O)c(O)c[nH]4)CCCC3)CS[C@H]12)c1csc(N)n1)C(=O)O	4
CC(C)(O/N=C(\C(=O)N[C@@H]1C(=O)N2C(C(=O)[O-])=C(C[N+]3(CCNC(=O)c4ccc(O)c(O)c4O)CCCC3)CS[C@H]12)c1csc(N)n1)C(=O)O	32

Test system: Acinetobacter baumannii
Assay: Antimicrobial activity against OXA-23/OXA-58 producing Acinetobacter baumannii SR27323 in presence of human apo-transferrin by broth microdilution method
Type: functional

SMILES	MIC [µg/mL]
CC(C)(O/N=C(\C(=O)N[C@@H]1C(=O)N2C(C(=O)[O-])=C(C[N+]3(CCNC(=O)c4ccc(O)c(O)c4Cl)CCCC3)CS[C@H]12)c1csc(N)n1)C(=O)O [CEFIDEROCOL]	1
CC(C)(O/N=C(\C(=O)N[C@@H]1C(=O)N2C(C(=O)[O-])=C(C[N+]3(CCNC(=O)c4cc(=O)c(O)c[nH]4)CCCC3)CS[C@H]12)c1csc(N)n1)C(=O)O	1
CC(C)(O/N=C(\C(=O)N[C@@H]1C(=O)N2C(C(=O)[O-])=C(C[N+]3(CCNC(=O)c4ccc(O)c(O)c4O)CCCC3)CS[C@H]12)c1csc(N)n1)C(=O)O	32

Test system: Klebsiella pneumoniae
Assay: Antimicrobial activity against KPC-2 producing Klebsiella pneumoniae ATCC BAA-1705 in presence of human apo-transferrin by broth microdilution method
Type: functional

SMILES	MIC [µg/mL]
CC(C)(O/N=C(\C(=O)N[C@@H]1C(=O)N2C(C(=O)[O-])=C(C[N+]3(CCNC(=O)c4ccc(O)c(O)c4Cl)CCCC3)CS[C@H]12)c1csc(N)n1)C(=O)O [CEFIDEROCOL]	0.063
CC(C)(O/N=C(\C(=O)N[C@@H]1C(=O)N2C(C(=O)[O-])=C(C[N+]3(CCNC(=O)c4cc(=O)c(O)c[nH]4)CCCC3)CS[C@H]12)c1csc(N)n1)C(=O)O	0.063
CC(C)(O/N=C(\C(=O)N[C@@H]1C(=O)N2C(C(=O)[O-])=C(C[N+]3(CCNC(=O)c4ccc(O)c(O)c4O)CCCC3)CS[C@H]12)c1csc(N)n1)C(=O)O	1

Test system: Pseudomonas aeruginosa
Assay: Antimicrobial activity against AmpC overproducing Pseudomonas aeruginosa SR24-12 in presence of human apo-transferrin by broth microdilution method
Type: functional

SMILES	MIC [µg/mL]
CC(C)(O/N=C(\C(=O)N[C@@H]1C(=O)N2C(C(=O)[O-])=C(C[N+]3(CCNC(=O)c4ccc(O)c(O)c4Cl)CCCC3)CS[C@H]12)c1csc(N)n1)C(=O)O [CEFIDEROCOL]	0.5
CC(C)(O/N=C(\C(=O)N[C@@H]1C(=O)N2C(C(=O)[O-])=C(C[N+]3(CCNC(=O)c4cc(=O)c(O)c[nH]4)CCCC3)CS[C@H]12)c1csc(N)n1)C(=O)O	0.25
CC(C)(O/N=C(\C(=O)N[C@@H]1C(=O)N2C(C(=O)[O-])=C(C[N+]3(CCNC(=O)c4ccc(O)c(O)c4O)CCCC3)CS[C@H]12)c1csc(N)n1)C(=O)O	2

Test system: not listed separately
Assay: Iron chelating activity in presence of cetyltrimethylammonium bromide at pH 5.5 by chromeazurol B dye based spectrophotometric method

SMILES	Activity
CC(C)(O/N=C(\C(=O)N[C@@H]1C(=O)N2C(C(=O)[O-])=C(C[N+]3(CCNC(=O)c4ccc(O)c(O)c4Cl)CCCC3)CS[C@H]12)c1csc(N)n1)C(=O)O [CEFIDEROCOL]	Active
CC(C)(O/N=C(\C(=O)N[C@@H]1C(=O)N2C(C(=O)[O-])=C(C[N+]3(CCNC(=O)c4cc(=O)c(O)c[nH]4)CCCC3)CS[C@H]12)c1csc(N)n1)C(=O)O	Active
CC(C)(O/N=C(\C(=O)N[C@@H]1C(=O)N2C(C(=O)[O-])=C(C[N+]3(CCNC(=O)c4ccc(O)c(O)c4O)CCCC3)CS[C@H]12)c1csc(N)n1)C(=O)O	Active

Test system: Pseudomonas aeruginosa
Assay: Antimicrobial activity against Pseudomonas aeruginosa SR24 in presence of human apo-transferrin by broth microdilution method
Type: functional

SMILES	MIC [µg/mL]
CC(C)(O/N=C(\C(=O)N[C@@H]1C(=O)N2C(C(=O)[O-])=C(C[N+]3(CCNC(=O)c4ccc(O)c(O)c4Cl)CCCC3)CS[C@H]12)c1csc(N)n1)C(=O)O [CEFIDEROCOL]	0.25
CC(C)(O/N=C(\C(=O)N[C@@H]1C(=O)N2C(C(=O)[O-])=C(C[N+]3(CCNC(=O)c4cc(=O)c(O)c[nH]4)CCCC3)CS[C@H]12)c1csc(N)n1)C(=O)O	0.25
CC(C)(O/N=C(\C(=O)N[C@@H]1C(=O)N2C(C(=O)[O-])=C(C[N+]3(CCNC(=O)c4ccc(O)c(O)c4O)CCCC3)CS[C@H]12)c1csc(N)n1)C(=O)O	1

Test system: Pseudomonas aeruginosa
Assay: Antimicrobial activity against VIM-2 producing Pseudomonas aeruginosa SBRKM-28 in presence of human apo-transferrin by broth microdilution method
Type: functional

SMILES	MIC [µg/mL]
CC(C)(O/N=C(\C(=O)N[C@@H]1C(=O)N2C(C(=O)[O-])=C(C[N+]3(CCNC(=O)c4cc(=O)c(O)c[nH]4)CCCC3)CS[C@H]12)c1csc(N)n1)C(=O)O	0.25

Test system: Stenotrophomonas maltophilia
Assay: Antimicrobial activity against L-1 producing Stenotrophomonas maltophilia SR21970 in presence of human apo-transferrin by broth microdilution method
Type: functional

SMILES	MIC [µg/mL]
CC(C)(O/N=C(\C(=O)N[C@@H]1C(=O)N2C(C(=O)[O-])=C(C[N+]3(CCNC(=O)c4cc(=O)c(O)c[nH]4)CCCC3)CS[C@H]12)c1csc(N)n1)C(=O)O	0.25
CC(C)(O/N=C(\C(=O)N[C@@H]1C(=O)N2C(C(=O)[O-])=C(C[N+]3(CCNC(=O)c4ccc(O)c(O)c4O)CCCC3)CS[C@H]12)c1csc(N)n1)C(=O)O	8

Test system: Escherichia coli
Assay: Antimicrobial activity against SHV-4 producing Escherichia coli ATCC BAA-200 in presence of human apo-transferrin by broth microdilution method
Type: functional

SMILES	MIC [µg/mL]
CC(C)(O/N=C(\C(=O)N[C@@H]1C(=O)N2C(C(=O)[O-])=C(C[N+]3(CCNC(=O)c4ccc(O)c(O)c4Cl)CCCC3)CS[C@H]12)c1csc(N)n1)C(=O)O [CEFIDEROCOL]	1
CC(C)(O/N=C(\C(=O)N[C@@H]1C(=O)N2C(C(=O)[O-])=C(C[N+]3(CCNC(=O)c4cc(=O)c(O)c[nH]4)CCCC3)CS[C@H]12)c1csc(N)n1)C(=O)O	1
CC(C)(O/N=C(\C(=O)N[C@@H]1C(=O)N2C(C(=O)[O-])=C(C[N+]3(CCNC(=O)c4ccc(O)c(O)c4O)CCCC3)CS[C@H]12)c1csc(N)n1)C(=O)O	32

Test system: Pseudomonas aeruginosa
Assay: Antimicrobial activity against IMP-1 producing Pseudomonas aeruginosa SR27060 in presence of human apo-transferrin by broth microdilution method
Type: functional

SMILES	MIC [µg/mL]
CC(C)(O/N=C(\C(=O)N[C@@H]1C(=O)N2C(C(=O)[O-])=C(C[N+]3(CCNC(=O)c4ccc(O)c(O)c4Cl)CCCC3)CS[C@H]12)c1csc(N)n1)C(=O)O [CEFIDEROCOL]	2
CC(C)(O/N=C(\C(=O)N[C@@H]1C(=O)N2C(C(=O)[O-])=C(C[N+]3(CCNC(=O)c4cc(=O)c(O)c[nH]4)CCCC3)CS[C@H]12)c1csc(N)n1)C(=O)O	4
CC(C)(O/N=C(\C(=O)N[C@@H]1C(=O)N2C(C(=O)[O-])=C(C[N+]3(CCNC(=O)c4ccc(O)c(O)c4O)CCCC3)CS[C@H]12)c1csc(N)n1)C(=O)O	16

Test system: Pseudomonas aeruginosa
Assay: Antibacterial activity against Pseudomonas aeruginosa SR27001 infected in Jcl:ICR mouse systemic infection model assessed as increase in mouse survival rate administered iv 1 to 5 hrs post infection measured over 7 days
Type: functional

SMILES	ED50 [mg/kg]
CC(C)(O/N=C(\C(=O)N[C@@H]1C(=O)N2C(C(=O)[O-])=C(C[N+]3(CCNC(=O)c4ccc(O)c(O)c4Cl)CCCC3)CS[C@H]12)c1csc(N)n1)C(=O)O [CEFIDEROCOL]	5.48
CC(C)(O/N=C(\C(=O)N[C@@H]1C(=O)N2C(C(=O)[O-])=C(C[N+]3(CCNC(=O)c4cc(=O)c(O)c[nH]4)CCCC3)CS[C@H]12)c1csc(N)n1)C(=O)O	10.2
